PMC8401933 (Molecules, 2021)

Tests used:
Experiment in all cases: KINOMEscan binding
CSNK2A1 = molecular target: T1, CSNK2A1 (Homo sapiens, UniProt P68400)
T1 construct: purchased Eurofins DiscoverX KINOMEscan

RIOK1 = molecular target: T2, RIOK1 (Homo sapiens, UniProt Q9BRS2); details: read-out: Percent Control
T2 construct: purchased Eurofins DiscoverX KINOMEscan

[1] = molecular target: T3, RSK1(Kin.Dom.1-N-terminal) (Homo sapiens, UniProt Q15418); details: read-out: Percent Control
T3 construct: RSK1(Kin.Dom.1-N-terminal); purchased Eurofins DiscoverX KINOMEscan

CDC2L5 = molecular target: T4, CDC2L5 (Homo sapiens, UniProt Q14004); details: read-out: Percent Control
T4 construct: purchased Eurofins DiscoverX KINOMEscan
Method: (§1) This platform contains 468 recombinant human kinases (more than 80% coverage) in which 56 disease-relevant mutants are included. The recombinant DNA-tagged kinases were incubated with the probe ligands immobilized to a solid support, and then the level of the captured kinases on the solid support was measured using quantitative PCR.

PRP4 = molecular target: T5, PRP4 (Homo sapiens, UniProt Q13523); details: read-out: Percent Control
T5 construct: purchased Eurofins DiscoverX KINOMEscan
Method: as §1

FLT3(D835Y) = molecular target: T6, FLT3(D835Y) (Homo sapiens, UniProt P36888, D835Y); details: read-out: Percent Control
T6 construct: purchased Eurofins DiscoverX KINOMEscan

YSK4 = molecular target: T7, YSK4 (Homo sapiens, UniProt Q56UN5); details: read-out: Percent Control
T7 construct: purchased Eurofins DiscoverX KINOMEscan

TAOK1 = molecular target: T8, TAOK1 (Homo sapiens, UniProt Q7L7X3); details: read-out: Percent Control
T8 construct: purchased Eurofins DiscoverX KINOMEscan

BMPR1B = molecular target: T9, BMPR1B (Homo sapiens, UniProt O00238); details: read-out: Percent Control
T9 construct: purchased Eurofins DiscoverX KINOMEscan

TSSK1B = molecular target: T10, TSSK1B (Homo sapiens, UniProt Q9BXA7); details: read-out: Percent Control
T10 construct: purchased Eurofins DiscoverX KINOMEscan

YANK3 = molecular target: T11, YANK3 (Homo sapiens, UniProt Q86UX6); details: read-out: Percent Control
T11 construct: purchased Eurofins DiscoverX KINOMEscan

FRK = molecular target: T12, FRK (Homo sapiens, UniProt P42685); details: read-out: Percent Control
T12 construct: purchased Eurofins DiscoverX KINOMEscan

KIT = molecular target: T13, KIT (Homo sapiens, UniProt P10721); details: read-out: Percent Control
T13 construct: purchased Eurofins DiscoverX KINOMEscan

ROS1 = molecular target: T14, ROS1 (Homo sapiens, UniProt P08922); details: read-out: Percent Control
T14 construct: purchased Eurofins DiscoverX KINOMEscan

PIK3CA(H1047L) = molecular target: T15, PIK3CA(H1047L) (Homo sapiens, UniProt P42336, H1047L); details: read-out: Percent Control
T15 construct: purchased Eurofins DiscoverX KINOMEscan

MAP3K4 = molecular target: T16, MAP3K4 (Homo sapiens, UniProt Q9Y6R4); details: read-out: Percent Control
T16 construct: purchased Eurofins DiscoverX KINOMEscan

MLK3 = molecular target: T17, MLK3 (Homo sapiens, UniProt Q16584); details: read-out: Percent Control
T17 construct: purchased Eurofins DiscoverX KINOMEscan

BRK = molecular target: T18, BRK (Homo sapiens, UniProt Q13882); details: read-out: Percent Control
T18 construct: purchased Eurofins DiscoverX KINOMEscan

[2] = molecular target: T19, RPS6KA5(Kin.Dom.2-C-terminal) (Homo sapiens, UniProt O75582); details: read-out: Percent Control
T19 construct: RPS6KA5(Kin.Dom.2-C-terminal); purchased Eurofins DiscoverX KINOMEscan

MYLK2 = molecular target: T20, MYLK2 (Homo sapiens, UniProt Q9H1R3); details: read-out: Percent Control
T20 construct: purchased Eurofins DiscoverX KINOMEscan

[3] = molecular target: T21, ABL1(M351T)-phosphorylated (Homo sapiens, UniProt P00519, M351T); details: read-out: Percent Control
T21 construct: purchased Eurofins DiscoverX KINOMEscan

CSF1R-autoinhibited = molecular target: T22, CSF1R-autoinhibited (Homo sapiens, UniProt P07333); details: read-out: Percent Control
T22 construct: purchased Eurofins DiscoverX KINOMEscan

RIPK2 = molecular target: T23, RIPK2 (Homo sapiens, UniProt O43353); details: read-out: Percent Control
T23 construct: purchased Eurofins DiscoverX KINOMEscan

[4] = molecular target: T24, ABL1(T315I)-nonphosphorylated (Homo sapiens, UniProt P00519, T315I); details: read-out: Percent Control
T24 construct: purchased Eurofins DiscoverX KINOMEscan

[5] = molecular target: T25, RSK4(Kin.Dom.1-N-terminal) (Homo sapiens, UniProt Q9UK32); details: read-out: Percent Control
T25 construct: RSK4(Kin.Dom.1-N-terminal); purchased Eurofins DiscoverX KINOMEscan

TRPM6 = molecular target: T26, TRPM6 (Homo sapiens, UniProt Q9BX84); details: read-out: Percent Control
T26 construct: purchased Eurofins DiscoverX KINOMEscan

FLT1 = molecular target: T27, FLT1 (Homo sapiens, UniProt P17948); details: read-out: Percent Control
T27 construct: purchased Eurofins DiscoverX KINOMEscan

[6] = molecular target: T28, TYK2(JH1domain-catalytic) (Homo sapiens, UniProt P29597); details: read-out: Percent Control
T28 construct: TYK2(JH1domain-catalytic); purchased Eurofins DiscoverX KINOMEscan

[7] = molecular target: T29, ABL1(F317L)-nonphosphorylated (Homo sapiens, UniProt P00519, F317L); details: read-out: Percent Control
T29 construct: purchased Eurofins DiscoverX KINOMEscan

PKAC-beta = molecular target: T30, PKAC-beta (Homo sapiens, UniProt P22694); details: read-out: Percent Control
T30 construct: purchased Eurofins DiscoverX KINOMEscan

[8] = molecular target: T31, JAK1(JH1domain-catalytic) (Homo sapiens, UniProt P23458); details: read-out: Percent Control
T31 construct: JAK1(JH1domain-catalytic); purchased Eurofins DiscoverX KINOMEscan

LRRK2(G2019S) = molecular target: T32, LRRK2(G2019S) (Homo sapiens, UniProt Q5S007, G2019S); details: read-out: Percent Control
T32 construct: purchased Eurofins DiscoverX KINOMEscan

NEK11 = molecular target: T33, NEK11 (Homo sapiens, UniProt Q8NG66); details: read-out: Percent Control
T33 construct: purchased Eurofins DiscoverX KINOMEscan

[9] = molecular target: T34, ABL1(Q252H)-phosphorylated (Homo sapiens, UniProt P00519, Q252H); details: read-out: Percent Control
T34 construct: purchased Eurofins DiscoverX KINOMEscan

GSK3A = molecular target: T35, GSK3A (Homo sapiens, UniProt P49840); details: read-out: Percent Control
T35 construct: purchased Eurofins DiscoverX KINOMEscan

HUNK = molecular target: T36, HUNK (Homo sapiens, UniProt P57058); details: read-out: Percent Control
T36 construct: purchased Eurofins DiscoverX KINOMEscan

IRAK4 = molecular target: T37, IRAK4 (Homo sapiens, UniProt Q9NWZ3); details: read-out: Percent Control
T37 construct: purchased Eurofins DiscoverX KINOMEscan

LZK = molecular target: T38, LZK (Homo sapiens, UniProt O43283); details: read-out: Percent Control
T38 construct: purchased Eurofins DiscoverX KINOMEscan

WNK4 = molecular target: T39, WNK4 (Homo sapiens, UniProt Q96J92); details: read-out: Percent Control
T39 construct: purchased Eurofins DiscoverX KINOMEscan

T1 sequence (P68400 whole entry): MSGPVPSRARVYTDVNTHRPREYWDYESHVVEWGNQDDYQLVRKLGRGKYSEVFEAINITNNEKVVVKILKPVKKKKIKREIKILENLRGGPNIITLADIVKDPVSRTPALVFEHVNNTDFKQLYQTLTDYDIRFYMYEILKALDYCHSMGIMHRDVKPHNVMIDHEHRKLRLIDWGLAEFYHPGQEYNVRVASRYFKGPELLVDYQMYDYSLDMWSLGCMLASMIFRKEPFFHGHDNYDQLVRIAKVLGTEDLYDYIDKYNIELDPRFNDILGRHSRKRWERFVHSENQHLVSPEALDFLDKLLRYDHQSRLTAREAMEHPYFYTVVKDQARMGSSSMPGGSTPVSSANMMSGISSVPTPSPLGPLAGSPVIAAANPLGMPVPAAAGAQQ
T33 sequence (Q8NG66 whole entry): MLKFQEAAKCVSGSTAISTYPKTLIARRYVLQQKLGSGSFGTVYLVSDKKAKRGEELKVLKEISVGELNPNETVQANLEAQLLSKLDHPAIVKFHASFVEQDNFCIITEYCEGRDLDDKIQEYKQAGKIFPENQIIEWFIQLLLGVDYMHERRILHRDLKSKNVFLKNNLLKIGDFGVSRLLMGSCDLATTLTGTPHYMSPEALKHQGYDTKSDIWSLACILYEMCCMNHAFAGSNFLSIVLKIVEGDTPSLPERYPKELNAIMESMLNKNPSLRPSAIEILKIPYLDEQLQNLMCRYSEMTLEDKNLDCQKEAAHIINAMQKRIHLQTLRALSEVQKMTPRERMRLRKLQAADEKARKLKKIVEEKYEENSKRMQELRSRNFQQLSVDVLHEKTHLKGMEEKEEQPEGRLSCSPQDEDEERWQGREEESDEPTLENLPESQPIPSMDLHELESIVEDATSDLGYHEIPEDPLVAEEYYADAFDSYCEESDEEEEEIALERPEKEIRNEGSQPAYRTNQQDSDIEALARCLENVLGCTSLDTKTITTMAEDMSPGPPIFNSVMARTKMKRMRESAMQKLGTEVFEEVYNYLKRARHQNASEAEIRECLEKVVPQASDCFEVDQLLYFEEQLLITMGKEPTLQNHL
T38 sequence (O43283 whole entry): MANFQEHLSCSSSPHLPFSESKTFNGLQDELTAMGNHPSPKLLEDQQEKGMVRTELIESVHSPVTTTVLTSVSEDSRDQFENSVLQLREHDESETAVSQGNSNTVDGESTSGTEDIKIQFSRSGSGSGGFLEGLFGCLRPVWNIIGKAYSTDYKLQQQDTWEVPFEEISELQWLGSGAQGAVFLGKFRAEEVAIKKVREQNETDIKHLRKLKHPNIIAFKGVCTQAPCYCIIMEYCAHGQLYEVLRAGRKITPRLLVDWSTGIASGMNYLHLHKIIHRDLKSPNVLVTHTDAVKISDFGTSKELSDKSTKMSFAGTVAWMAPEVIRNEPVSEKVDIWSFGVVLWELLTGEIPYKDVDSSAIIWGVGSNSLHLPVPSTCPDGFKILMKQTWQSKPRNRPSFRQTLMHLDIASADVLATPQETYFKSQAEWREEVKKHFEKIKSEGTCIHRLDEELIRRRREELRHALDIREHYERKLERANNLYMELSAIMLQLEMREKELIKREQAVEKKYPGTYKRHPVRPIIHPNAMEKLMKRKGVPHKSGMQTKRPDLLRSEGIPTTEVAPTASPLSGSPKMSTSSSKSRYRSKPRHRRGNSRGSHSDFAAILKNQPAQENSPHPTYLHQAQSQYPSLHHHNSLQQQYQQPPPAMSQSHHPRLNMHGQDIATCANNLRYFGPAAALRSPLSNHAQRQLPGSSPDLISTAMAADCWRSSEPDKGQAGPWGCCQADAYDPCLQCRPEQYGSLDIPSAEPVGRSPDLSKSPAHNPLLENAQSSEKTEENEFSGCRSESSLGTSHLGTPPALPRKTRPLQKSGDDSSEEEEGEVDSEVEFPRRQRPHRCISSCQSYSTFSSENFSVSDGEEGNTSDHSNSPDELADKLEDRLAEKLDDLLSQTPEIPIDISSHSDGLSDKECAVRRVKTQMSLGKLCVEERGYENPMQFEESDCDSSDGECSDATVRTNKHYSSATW
T7 sequence (Q56UN5 whole entry): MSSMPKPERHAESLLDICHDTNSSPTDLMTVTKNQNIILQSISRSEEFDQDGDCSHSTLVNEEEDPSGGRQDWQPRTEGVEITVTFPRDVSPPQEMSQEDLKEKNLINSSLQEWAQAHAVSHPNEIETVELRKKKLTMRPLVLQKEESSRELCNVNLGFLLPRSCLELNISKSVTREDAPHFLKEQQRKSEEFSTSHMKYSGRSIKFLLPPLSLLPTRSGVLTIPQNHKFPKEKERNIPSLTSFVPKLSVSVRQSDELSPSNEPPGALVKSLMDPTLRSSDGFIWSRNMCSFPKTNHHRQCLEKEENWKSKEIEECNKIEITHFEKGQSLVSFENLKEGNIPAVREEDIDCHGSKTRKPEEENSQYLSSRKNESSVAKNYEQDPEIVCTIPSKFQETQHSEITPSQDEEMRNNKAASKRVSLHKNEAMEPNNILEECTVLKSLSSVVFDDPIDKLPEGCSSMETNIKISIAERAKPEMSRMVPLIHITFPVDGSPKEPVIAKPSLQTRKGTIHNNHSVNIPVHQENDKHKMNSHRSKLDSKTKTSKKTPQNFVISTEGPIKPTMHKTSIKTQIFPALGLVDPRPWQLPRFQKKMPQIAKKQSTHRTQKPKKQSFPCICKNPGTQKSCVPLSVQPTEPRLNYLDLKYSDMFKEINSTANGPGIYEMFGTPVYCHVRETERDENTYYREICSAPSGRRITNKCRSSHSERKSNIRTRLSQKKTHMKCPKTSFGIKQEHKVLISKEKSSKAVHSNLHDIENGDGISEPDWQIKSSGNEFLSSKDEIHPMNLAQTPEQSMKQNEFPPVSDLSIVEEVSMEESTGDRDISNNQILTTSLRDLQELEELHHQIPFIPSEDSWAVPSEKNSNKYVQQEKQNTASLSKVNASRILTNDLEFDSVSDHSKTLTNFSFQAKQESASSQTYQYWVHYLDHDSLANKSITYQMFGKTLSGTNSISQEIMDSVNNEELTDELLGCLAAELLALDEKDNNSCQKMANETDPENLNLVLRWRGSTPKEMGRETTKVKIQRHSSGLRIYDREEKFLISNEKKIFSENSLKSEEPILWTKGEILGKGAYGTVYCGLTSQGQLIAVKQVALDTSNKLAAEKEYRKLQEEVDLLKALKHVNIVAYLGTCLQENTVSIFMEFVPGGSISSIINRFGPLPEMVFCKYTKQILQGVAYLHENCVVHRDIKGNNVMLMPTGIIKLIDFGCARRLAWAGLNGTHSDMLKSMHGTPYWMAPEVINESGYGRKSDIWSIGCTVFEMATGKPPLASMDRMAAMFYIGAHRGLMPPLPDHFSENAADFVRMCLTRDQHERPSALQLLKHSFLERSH
T36 sequence (P57058 whole entry): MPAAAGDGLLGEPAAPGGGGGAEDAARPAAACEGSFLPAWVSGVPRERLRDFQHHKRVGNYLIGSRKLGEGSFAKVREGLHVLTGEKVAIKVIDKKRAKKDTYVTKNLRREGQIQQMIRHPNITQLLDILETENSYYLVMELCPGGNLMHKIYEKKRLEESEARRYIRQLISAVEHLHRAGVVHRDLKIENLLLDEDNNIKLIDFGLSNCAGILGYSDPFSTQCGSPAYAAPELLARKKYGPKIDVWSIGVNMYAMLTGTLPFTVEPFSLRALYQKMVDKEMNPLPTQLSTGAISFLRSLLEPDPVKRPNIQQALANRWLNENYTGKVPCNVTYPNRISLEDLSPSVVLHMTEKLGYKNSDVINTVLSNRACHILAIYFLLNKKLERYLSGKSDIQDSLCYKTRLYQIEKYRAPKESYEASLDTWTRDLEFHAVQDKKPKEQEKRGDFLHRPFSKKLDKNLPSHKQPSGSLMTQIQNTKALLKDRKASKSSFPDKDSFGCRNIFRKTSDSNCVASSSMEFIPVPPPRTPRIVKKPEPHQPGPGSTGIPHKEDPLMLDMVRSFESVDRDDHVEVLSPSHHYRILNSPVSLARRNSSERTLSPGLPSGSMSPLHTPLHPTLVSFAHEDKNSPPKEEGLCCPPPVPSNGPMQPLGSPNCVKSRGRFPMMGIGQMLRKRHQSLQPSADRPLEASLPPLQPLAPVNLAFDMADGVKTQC
T2 sequence (Q9BRS2 whole entry): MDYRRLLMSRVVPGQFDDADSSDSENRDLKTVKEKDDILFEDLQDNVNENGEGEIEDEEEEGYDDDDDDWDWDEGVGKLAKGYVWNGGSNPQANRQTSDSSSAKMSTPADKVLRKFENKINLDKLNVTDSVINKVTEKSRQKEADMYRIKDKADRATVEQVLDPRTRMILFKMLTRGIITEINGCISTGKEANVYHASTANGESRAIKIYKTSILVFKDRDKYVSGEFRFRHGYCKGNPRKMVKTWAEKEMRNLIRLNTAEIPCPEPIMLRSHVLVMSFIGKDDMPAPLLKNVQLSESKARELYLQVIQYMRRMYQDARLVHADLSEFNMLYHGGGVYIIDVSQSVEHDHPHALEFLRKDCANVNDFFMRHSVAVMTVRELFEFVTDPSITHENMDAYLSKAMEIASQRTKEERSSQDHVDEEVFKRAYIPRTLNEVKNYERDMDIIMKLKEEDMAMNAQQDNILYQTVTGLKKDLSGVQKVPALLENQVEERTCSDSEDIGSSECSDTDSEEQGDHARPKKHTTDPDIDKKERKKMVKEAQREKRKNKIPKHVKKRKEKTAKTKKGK
T37 sequence (Q9NWZ3 whole entry): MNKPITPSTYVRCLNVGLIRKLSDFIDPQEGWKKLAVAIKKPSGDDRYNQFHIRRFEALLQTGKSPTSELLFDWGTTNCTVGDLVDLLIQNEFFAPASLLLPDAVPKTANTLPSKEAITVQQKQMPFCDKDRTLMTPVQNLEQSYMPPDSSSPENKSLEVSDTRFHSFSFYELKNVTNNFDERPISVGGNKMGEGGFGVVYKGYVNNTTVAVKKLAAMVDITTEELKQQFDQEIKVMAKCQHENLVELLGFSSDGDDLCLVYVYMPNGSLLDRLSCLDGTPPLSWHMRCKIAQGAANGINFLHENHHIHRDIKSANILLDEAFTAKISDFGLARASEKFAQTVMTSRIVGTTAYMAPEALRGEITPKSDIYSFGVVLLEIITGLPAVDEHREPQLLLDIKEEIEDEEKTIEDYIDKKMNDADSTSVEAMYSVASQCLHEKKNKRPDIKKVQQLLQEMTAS

Q: How did the “CK2α and CK2α’ inhibited less than ROCK2 (POC)” value (CSNK2A1; 10 μM) turn out when `CC(C)NC(=O)COc1cccc(-c2nc(Nc3ccc4[nH]ncc4c3)c3ccccc3n2)c1` [KD025, 2-(3-(4-((1H-indazol-5-yl)amino)quinazolin-2-yl)phenoxy)-N-isopropylacetamide] was run?
A: The value was 10 fold.

Q: And the remaining binding at 10 µM (CSNK2A1; CSNK2A1, read-out: Percent Control)?
A: Its remaining binding at 10 µM is 0.5%.

Q: What about the remaining binding at 10 µM (RIOK1) of the same molecule?
A: Its remaining binding at 10 µM is 6.2%.

Q: What about the remaining binding at 10 µM [1] of the same molecule?
A: The remaining binding at 10 µM was 7.8%.

Q: What about the remaining binding at 10 µM (CDC2L5) of the same molecule?
A: The remaining binding at 10 µM was 100%.

Q: And the remaining binding at 10 µM (PRP4)?
A: Its remaining binding at 10 µM is 15%.

Q: And the remaining binding at 10 µM (FLT3(D835Y))?
A: The remaining binding at 10 µM was 46%.

Q: What about the remaining binding at 10 µM (YSK4) of the same molecule?
A: Its remaining binding at 10 µM is 66%.

Q: What about the remaining binding at 10 µM (TAOK1) of the same molecule?
A: Its remaining binding at 10 µM is 71%.

Q: And the remaining binding at 10 µM (BMPR1B)?
A: The remaining binding at 10 µM was 76%.

Q: What about the remaining binding at 10 µM (TSSK1B) of the same molecule?
A: The remaining binding at 10 µM was 76%.

Q: What about the remaining binding at 10 µM (YANK3) of the same molecule?
A: Its remaining binding at 10 µM is 76%.

Q: What about the remaining binding at 10 µM (FRK) of the same molecule?
A: Its remaining binding at 10 µM is 78%.

Q: And the remaining binding at 10 µM (KIT)?
A: Its remaining binding at 10 µM is 79%.

Q: And the remaining binding at 10 µM (ROS1)?
A: The remaining binding at 10 µM was 79%.

Q: And the remaining binding at 10 µM (PIK3CA(H1047L))?
A: Its remaining binding at 10 µM is 82%.

Q: What about the remaining binding at 10 µM (MAP3K4) of the same molecule?
A: Its remaining binding at 10 µM is 83%.

Q: What about the remaining binding at 10 µM (MLK3) of the same molecule?
A: Its remaining binding at 10 µM is 83%.

Q: What about the remaining binding at 10 µM (BRK) of the same molecule?
A: The remaining binding at 10 µM was 86%.

Q: And the remaining binding at 10 µM [2]?
A: Its remaining binding at 10 µM is 86%.

Q: And the remaining binding at 10 µM (MYLK2)?
A: The remaining binding at 10 µM was 87%.

Q: And the remaining binding at 10 µM [3]?
A: The remaining binding at 10 µM was 90%.

Q: What about the remaining binding at 10 µM (CSF1R-autoinhibited) of the same molecule?
A: Its remaining binding at 10 µM is 91%.

Q: What about the remaining binding at 10 µM (RIPK2) of the same molecule?
A: The remaining binding at 10 µM was 92%.

Q: What about the remaining binding at 10 µM [4] of the same molecule?
A: The remaining binding at 10 µM was 93%.

Q: And the remaining binding at 10 µM [5]?
A: Its remaining binding at 10 µM is 93%.

Q: And the remaining binding at 10 µM (TRPM6)?
A: The remaining binding at 10 µM was 93%.

Q: And the remaining binding at 10 µM (FLT1)?
A: Its remaining binding at 10 µM is 95%.

Q: And the remaining binding at 10 µM [6]?
A: Its remaining binding at 10 µM is 95%.

Q: And the remaining binding at 10 µM [7]?
A: The remaining binding at 10 µM was 96%.

Q: And the remaining binding at 10 µM (PKAC-beta)?
A: The remaining binding at 10 µM was 98%.

Q: What about the remaining binding at 10 µM [8] of the same molecule?
A: Its remaining binding at 10 µM is 99%.

Q: What about the remaining binding at 10 µM (LRRK2(G2019S)) of the same molecule?
A: Its remaining binding at 10 µM is 99%.

Q: What about the remaining binding at 10 µM (NEK11) of the same molecule?
A: The remaining binding at 10 µM was 99%.

Q: And the remaining binding at 10 µM [9]?
A: Its remaining binding at 10 µM is 100%.

Q: And the remaining binding at 10 µM (GSK3A)?
A: Its remaining binding at 10 µM is 100%.

Q: And the remaining binding at 10 µM (HUNK)?
A: Its remaining binding at 10 µM is 100%.

Q: What about the remaining binding at 10 µM (IRAK4) of the same molecule?
A: The remaining binding at 10 µM was 100%.

Q: And the remaining binding at 10 µM (LZK)?
A: The remaining binding at 10 µM was 100%.

Q: What about the remaining binding at 10 µM (WNK4) of the same molecule?
A: Its remaining binding at 10 µM is 100%.
